Assay results taken from patent US10676527B2, “Methods and compositions for modulation of blood-neural barrier” (Ludwig Institute for Cancer Research Ltd, priority 2006, dated 2020).
Structures can show the parent of a compound that is named as a salt.

Experiments:
BBB = test: Evans Blue extravasation (BBB opening) after intraventricular injection; assay type: in vivo; conditions: Example 1, FIG. 1; C57BL6 mice, 2 μl intraventricular, 3 μM, 1 hour after injection
Experimental: Wild type C57BL6 mice (10 Week old) were injected intraventricularly into the dorsal third ventricle with 2 μl of PBS, active PDGF-AA, PDGF-BB (both from Preprotech Inc.) and PDGF-CC (see below) (3 μM). Evans Blue was given intravenously immediately after the injection. One hour after the injection, the animals were perfused with PBS and the brain tissue was removed and processed for Evans Blue extravasation.
Wild type C57BL6 mice (10 Week old) were injected intraventricularly into the dorsal third ventricle with 2 μl of either PBS, wild type murine tPA (3 μM), active PDGF-CC (3 μM), or wild type murine tPA (3 μM) plus active PDGF-CC (3 μM). Evans Blue was given intravenously immediately after the injection. One hour after the injection, the animals were perfused with PBS and the brain tissue was removed and processed for Evans Blue extravasation.
Wt C57BL6 mice (10 Week old) were injected intraventricularly with 3 μl of either PBS, wild type murine tPA (3 μM), wild type murine tPA (3 μM) with rabbit anti-PDGF-CC (150 μg/ml). Evans Blue was given intravenously immediately after the injection. One hour after the injection, the animals were perfused with PBS and the brain tissue was removed and processed for Evans Blue extravasation.

PDGFR-α = PDGFR-α (Homo sapiens, UniProt P16234); conditions: known from the art; cited from earlier work
Chain of PDGFR-α (P16234 24-1089, species assumed): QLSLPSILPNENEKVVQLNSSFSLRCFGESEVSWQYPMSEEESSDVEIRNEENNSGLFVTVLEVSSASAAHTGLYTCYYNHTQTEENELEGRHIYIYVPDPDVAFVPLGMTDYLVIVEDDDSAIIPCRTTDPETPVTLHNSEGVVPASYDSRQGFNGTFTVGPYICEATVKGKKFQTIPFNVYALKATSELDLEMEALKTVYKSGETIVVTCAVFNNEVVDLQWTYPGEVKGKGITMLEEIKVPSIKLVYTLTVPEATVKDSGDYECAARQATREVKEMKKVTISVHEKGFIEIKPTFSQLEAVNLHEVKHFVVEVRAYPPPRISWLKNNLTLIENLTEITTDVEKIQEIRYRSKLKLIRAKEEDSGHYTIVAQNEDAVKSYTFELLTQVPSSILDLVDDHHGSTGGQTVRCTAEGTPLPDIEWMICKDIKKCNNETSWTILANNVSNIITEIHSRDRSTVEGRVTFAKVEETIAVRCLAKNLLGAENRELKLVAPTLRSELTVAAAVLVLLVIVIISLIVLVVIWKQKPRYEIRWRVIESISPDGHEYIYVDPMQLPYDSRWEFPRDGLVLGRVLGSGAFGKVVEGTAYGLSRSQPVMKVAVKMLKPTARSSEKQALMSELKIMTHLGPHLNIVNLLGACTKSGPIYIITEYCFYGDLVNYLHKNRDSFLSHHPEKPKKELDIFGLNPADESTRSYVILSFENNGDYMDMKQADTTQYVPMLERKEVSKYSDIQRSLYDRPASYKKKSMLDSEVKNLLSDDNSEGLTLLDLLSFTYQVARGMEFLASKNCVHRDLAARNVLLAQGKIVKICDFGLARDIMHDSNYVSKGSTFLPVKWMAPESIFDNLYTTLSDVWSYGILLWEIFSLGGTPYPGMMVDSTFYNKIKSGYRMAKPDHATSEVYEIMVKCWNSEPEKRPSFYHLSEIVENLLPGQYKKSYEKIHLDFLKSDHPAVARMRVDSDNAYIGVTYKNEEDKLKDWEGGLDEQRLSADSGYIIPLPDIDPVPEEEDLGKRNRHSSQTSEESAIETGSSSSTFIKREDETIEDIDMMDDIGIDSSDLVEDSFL

Molecule | vascular permeability / opening of the BBB (Evans Blue extravasation) (BBB) | inhibition of PDGFR-α (PDGFR-α)
PDGF-AA: active platelet-derived growth factor AA dimer (from Preprotech Inc.) | induce increased vascular permeability | 
Cc1ccc(NC(=O)c2ccc(CN3CCN(C)CC3)cc2)cc1Nc1nccc(-c2cccnc2)n1 [Gleevec®, imatinib mesylate] |  | at least partially inhibit
